Laboratory results: US8664217B2, “Benzodiazepine compound and pharmaceutical composition” (Otsuka Pharmaceutical Co., Ltd., priority 2008, dated 2014)
Counter-ions that a name gives are not always drawn.

Target: T1, human GIRK1/4 channels (Homo sapiens, UniProt P48544+P48549)
T1 construct: Full-length human GIRK1 cDNA was cloned from HuH cell- and HeLa cell-derived cDNA libraries; Full-length GIRK4 cDNA was amplified from a human heart cDNA library; expressed in transfected cells; host or cells: FLP-IN-CHO cells (Invitrogen)
T1 sequence (P48549 1-501): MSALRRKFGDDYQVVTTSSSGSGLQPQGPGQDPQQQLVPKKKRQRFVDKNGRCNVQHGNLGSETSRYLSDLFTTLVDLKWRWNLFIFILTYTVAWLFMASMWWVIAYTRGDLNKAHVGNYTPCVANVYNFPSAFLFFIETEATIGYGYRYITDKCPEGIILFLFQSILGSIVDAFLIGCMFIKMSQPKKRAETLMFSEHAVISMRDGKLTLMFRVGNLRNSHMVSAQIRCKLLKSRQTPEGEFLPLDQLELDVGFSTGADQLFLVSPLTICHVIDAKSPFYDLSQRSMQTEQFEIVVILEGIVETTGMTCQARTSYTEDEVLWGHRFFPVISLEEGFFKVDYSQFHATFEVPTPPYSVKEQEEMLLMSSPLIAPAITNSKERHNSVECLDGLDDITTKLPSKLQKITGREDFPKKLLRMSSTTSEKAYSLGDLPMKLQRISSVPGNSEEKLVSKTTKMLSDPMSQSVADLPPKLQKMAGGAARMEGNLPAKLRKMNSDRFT
T1 sequence (P48544 1-419): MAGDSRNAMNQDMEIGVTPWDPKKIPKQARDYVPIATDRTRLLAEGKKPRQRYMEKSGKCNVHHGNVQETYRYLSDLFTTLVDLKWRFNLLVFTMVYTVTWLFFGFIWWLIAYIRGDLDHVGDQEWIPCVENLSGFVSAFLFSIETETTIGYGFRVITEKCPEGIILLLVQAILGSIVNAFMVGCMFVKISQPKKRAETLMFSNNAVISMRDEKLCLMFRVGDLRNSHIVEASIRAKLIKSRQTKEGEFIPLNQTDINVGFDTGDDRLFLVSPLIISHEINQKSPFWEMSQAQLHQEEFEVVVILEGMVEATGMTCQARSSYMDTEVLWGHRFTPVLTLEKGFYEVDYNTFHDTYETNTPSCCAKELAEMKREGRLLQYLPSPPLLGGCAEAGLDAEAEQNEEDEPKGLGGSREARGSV
Test: Measurement of human GIRK1/4 channel current by whole-cell patch clamp method (human GIRK1/4-expressing CHO cell line)
Format: cell-based
Settings: not given
Procedure: (2) Production of CHO Cell Line Expressing Human GIRK1/4
CHO cell lines stably expressing human GIRK1/4 channels were prepared in the following manner.
Full-length human GIRK1 cDNA was cloned from HuH cell- and HeLa cell-derived cDNA libraries. Full-length GIRK4 cDNA was amplified from a human heart cDNA library (produced by Clontech Laboratories, Inc.) by PCR using synthetic primers shown in Table 1, and cloned into the Eco-RI restriction enzyme site of pCR-Blunt (produced by Invitrogen Corporation) or into the HincII site of pUC118 (produced by Takara Bio, Inc.).
The obtained human GIRK1 and GIRK4 cDNA sequences correspond to known sequences (NCBI database: GIRK1 (NM_002239) and GIRK4 (NM_000890) respectively). The obtained GIRK1 and GIRK4 cDNA sequences were cloned into the Eco-RI restriction enzyme site of pCR-Blunt (available from Invitrogen Corporation) or into the HincII site of pUC118 (available from Takara Bio, Inc.). A GIRK4 expression vector was constructed by insertion into the BamHI-XhoI site of pcDNA5/FRT. A GIRK1 expression vector was constructed by insertion into the KpnI-XhoI site of pcDNA3.1(+) or pCAG_neo. FLP-IN-CHO cells (produced by Invitrogen Corporation) were transfected with human GIRK1 and GIRK4 expression vectors by using Lipofectamine 2000 (produced by Invitrogen Corporation) according to the protocol enclosed with the reagent or using an electronic induction method (“Nucleofector Kit-T”, produced by Amaxa). First, the cells transfected with the GIRK4 expression vector were cultured in a 10% serum-containing F12 medium (produced by Sigma) supplemented with 600 μg/ml of hygromycin in an incubator with 5% carbon dioxide at 37° C. Then the cells expressing GIRK4 were transfected with the GIRK1 expression vector and were cultured in 10% serum-containing F12 medium supplemented with 350 μg/ml of G418 and 600 μg/ml of hygromycin in an incubator with 5% carbon dioxide at 37° C. to select GIRK1/4 expressing cell lines. Cell populations whose growth was observed after about 2 weeks were isolated using cloning rings, and the obtained single colonies were proliferated. RNA was extracted from single colonies, and single-stranded cDNA was synthesized by a cDNA synthesis kit (produced by Invitrogen Corporation), and the amount of expression was quantified at the mRNA level by real-time PCR (Applied Biosystems, Ltd.). Finally, the expressed current was analyzed by patch clamp method described below. The cell lines expressing a current of 500 pA or more per cell were selected as channel-expressing cell lines for activity measurement by patch clamping method.
(4) Measurement of Ion Channel Current by Patch Clamp Method (Human GIRK1/4-Expressing CHO-K1 Cell Line)
An experiment was carried out using a patch clamp setup at room temperature (20 to 26° C.). A perfusion chamber having a diameter of 20 mm (flow rate: about 5 ml/min) was mounted on the stage of a phase-contrast inverted microscope (produced by Nikon Corporation) placed on a vibration isolation table. A poly-L-lysine (produced by Sigma)-coated coverslip (diameter: 15 mm, produced by Matsunami Glass Ind., Ltd.) on which human GIRK1/4-expressing cells were cultured was placed in the perfusion chamber.
Hyperpolarizing stimulation pulses were applied and ionic current was recorded using a patch clamp amplifier (EPC-7 or EPC-7 PLUS, manufactured by HEKA) and a personal computer (manufactured by IBM Corp.) in which software for data acquisition and analysis of ion channel current (PULSE 8.77, manufactured by HEKA) was installed. The current was measured in the whole-cell configuration of the patch-clamp technique. The tip (resistance: 2 to 4 MΩ) of a borosilicate glass pipette (produced by Sutter Instrument Co.) was gently placed on the cell membrane by using a three-dimensional mechanical micromanipulator (produced by Shoshin EM Corporation). […] Subsequently, stronger suction was applied to break the cell membrane. […]

Compound | IC50
CCN1C(=O)C(C)(C)C(=O)N(C)c2cc(OCCCN(CCn3ccc4ccccc4c3=O)Cc3ccsc3)ccc21 [Example 125] | 0.091 µM

Same assay, conditions: whole-cell patch clamp, human GIRK1/4-expressing CHO cells; step end current at −120 mV; test compound 0.1, 1, 10 μM; read-out: GIRK¼ IC50

IC50 | Compound
0.93 µM | CCN1C(=O)C(C)(C)C(=O)N(C)c2cc(OCCCN(CCc3cccnc3)Cc3ccncc3)ccc21 [Example 8, 1-ethyl-3,3,5-trimethyl-7-{3-[(2-pyridin-3-ylethyl)pyridin-4-ylmethylamino]propoxy}-1,5-dihydrobenzo[b][1,4]diazepine-2,4-dione trihydrochloride]
3.6 µM | CCCN1C(=O)C(C)(C)C(=O)N(C)c2cc(OCCCN(CCc3cccnc3)Cc3ccncc3)ccc21 [Example 10, 3,3,5-trimethyl-1-propyl-7-{3-[(2-pyridin-3-ylethyl)pyridin-4-ylmethylamino]propoxy}-1,5-dihydrobenzo[b][1,4]diazepine-2,4-dione trihydrochloride]
1.4 µM | CN1C(=O)C(C)(C)C(=O)N(C)c2cc(OCCCN(CCc3cccnc3)Cc3ccncc3)ccc21 [Example 19, 1,3,3,5-tetramethyl-7-{3-[(2-pyridin-3-ylethyl)pyridin-4-ylmethylamino]propoxy}-1,5-dihydrobenzo[b][1,4]diazepine-2,4-dione trihydrochloride]
0.25 µM | CCN1C(=O)C(C)(C)C(=O)N(C)c2cc(OCCCN(CCn3ccc4ccccc4c3=O)Cc3ccncc3)ccc21 [Example 23, 1-ethyl-3,3,5-trimethyl-7-(3-{[2-(1-oxo-1H-isoquinolin-2-yl)ethyl]pyridin-4-ylmethylamino}propoxy)-1,5-dihydrobenzo[b][1,4]diazepine-2,4-dione dihydrochloride]
2.9 µM | CCN1C(=O)C(C)(C)C(=O)N(C)c2cc(OCCCN(CCn3ccc4ccoc4c3=O)Cc3ccncc3)ccc21 [Example 31, 1-ethyl-3,3,5-trimethyl-7-(3-{[2-(7-oxo-7H-furo[2,3-c]pyridin-6-yl)ethyl]pyridin-4-ylmethylamino}propoxy)-1,5-dihydrobenzo[b][1,4]diazepine-2,4-dione dihydrochloride]
2.15 µM | CN(CCN(CCCOc1ccc2c(c1)N(C)C(=O)C(C)(C)C(=O)N2C)Cc1ccncc1)C(=O)c1ccccc1 [Example 45, N-methyl-N-(2-{pyridin-4-ylmethyl-[3-(1,3,3,5-tetramethyl-2,4-dioxo-2,3,4,5-tetrahydro-1H-benzo[b][1,4]diazepin-7-yloxy)propyl]amino}ethyl)benzamide dihydrochloride]
0.46 µM | Cc1ccccc1CN(CCCOc1ccc2c(c1)N(C)C(=O)C(C)(C)C(=O)N2C)CCc1cccnc1 [Example 50, 1,3,3,5-tetramethyl-7-{3-[(2-methylbenzyl)-(2-pyridin-3-ylethyl)amino]propoxy}-1,5-dihydrobenzo[b][1,4]diazepine-2,4-dione dihydrochloride]
1.5 µM | CN1C(=O)C(C)(C)C(=O)N(C)c2cc(OCCCN(CCc3cccnc3)Cc3ccnc4ccccc34)ccc21 [Example 51, 1,3,3,5-tetramethyl-7-{3-[(2-pyridin-3-ylethyl)-(quinolin-4-ylmethyl)amino]propoxy}-1,5-dihydrobenzo[b][1,4]diazepine-2,4-dione trihydrochloride]
0.97 µM | CCN1C(=O)C(C)(C)C(=O)N(C)c2cc(OCCCN(CCc3cccnc3)Cc3ccncc3C)ccc21 [Example 54, 1-ethyl-3,3,5-trimethyl-7-{3-[(3-methylpyridin-4-ylmethyl)-(2-pyridin-3-ylethyl)amino]propoxy}-1,5-dihydrobenzo[b][1,4]diazepine-2,4-dione trihydrochloride]
0.92 µM | CCN1C(=O)C(C)(C)C(=O)N(C)c2cc(OCCCN(CCn3c(=O)ccc4ccccc43)Cc3ccncc3)ccc21 [Example 63, 1-ethyl-3,3,5-trimethyl-7-(3-{[2-(2-oxo-2H-quinolin-1-yl)ethyl]pyridin-4-ylmethylamino}propoxy)-1,5-dihydrobenzo[b][1,4]diazepine-2,4-dione]
5.1 µM | CCN1C(=O)C(C)(C)C(=O)N(C)c2cc(OCCCN(CCn3ccc4ccsc4c3=O)Cc3ccncc3)ccc21 [Example 68, 1-ethyl-3,3,5-trimethyl-7-(3-{[2-(7-oxo-7H-thieno[2,3-c]pyridin-6-yl)ethyl]pyridin-4-ylmethylamino}propoxy)-1,5-dihydrobenzo[b][1,4]diazepine-2,4-dione]
0.15 µM | CCN1C(=O)C(C)(C)C(=O)N(C)c2cc(OCCCN(CCn3ccc4ccccc4c3=O)Cc3ccc(C#N)cc3)ccc21 [Example 85]
0.27 µM | CCN1C(=O)C(C)(C)C(=O)N(C)c2cc(OCCCN(CCn3ccc4ccccc4c3=O)Cc3ccco3)ccc21 [Example 132]
0.69 µM | CCN1C(=O)C(C)(C)C(=O)N(C)c2cc(OCCCN(CCc3cccnc3)Cc3cccc(C#N)c3)ccc21 [Example 229]
0.22 µM | CCN1C(=O)C(C)(C)C(=O)N(C)c2cc(OCCCN(CCc3cccnc3)Cc3ccccc3-c3cccnc3)ccc21 [Example 242]
0.49 µM | CCN1C(=O)C(C)(C)C(=O)N(C)c2cc(OCCCN(CCn3ccc4ccoc4c3=O)Cc3ccc(C#N)cc3)ccc21 [Example 380]
0.33 µM | CCN1C(=O)C(C)(C)C(=O)N(C)c2cc(OCCCN(CCn3ccc4ccoc4c3=O)Cc3ccc(C(F)(F)F)cc3)ccc21 [Example 395]
0.49 µM | CCN1C(=O)C(C)(C)C(=O)N(C)c2cc(OCCCN(CCn3ccc4ccoc4c3=O)Cc3ccccc3C)ccc21 [Example 398]

Compound | IC50
CCN1C(=O)C(C)(C)C(=O)N(CC)c2cc(OCCCN(CCc3cccnc3)Cc3ccncc3)ccc21 [Example 14, 1,5-diethyl-3,3-dimethyl-7-{3-[(2-pyridin-3-ylethyl)pyridin-4-ylmethylamino]propoxy}-1,5-dihydrobenzo[b][1,4]diazepine-2,4-dione trihydrochloride] | 0.72 µM
CCN1C(=O)C(C)(C)C(=O)N(C)c2cc(OCCCN(CCc3cccnc3)Cc3ccccc3)ccc21 [Example 200] | 0.59 µM
CCN1C(=O)C(C)(C)C(=O)N(C)c2cc(OCCCN(CCn3ccc4ccoc4c3=O)Cc3cccs3)ccc21 [Example 417] | 0.98 µM
